For experiment [1], the target named is T1, Escherichia coli IDI-1 (Escherichia coli, UniProt Q46822). As to the kind of experiment: Acid lability assay, inhibition of the isomerization of IPP to DMAPP by IDI-1. The format is biochemical. The settings on record: for Type of inhibition: isomerization of IPP to DMAPP catalyzed by IDI-1.
The target in experiment [2] is T2, Thermus thermophilus IDI-2 (Thermus thermophilus, UniProt Q53W52). Kind of experiment: Acid lability assay, inhibition of the isomerization of IPP to DMAPP by IDI-2. In kind it is biochemical. To be noted: for Type of inhibition: isomerization of IPP to DMAPP catalyzed by IDI-2.
The target of experiment [3] is T2, Thermus thermophilus IDI-2. Kind of experiment: Product studies by 1H NMR, incubation with IDI-2. In kind it is biochemical. The settings on record: for Isomerization (turnover as substrate) by NMR: IDI-2, 37 °C, spectra at one-hour intervals over 12 h; for Reactivity relative to the natural substrates (times less reactive): IDI-2, estimate based on NMR studies.
In experiment [4] the target is T1, Escherichia coli IDI-1. The settings on record: cited from earlier work.
For experiment [5], the target named is T2, Thermus thermophilus IDI-2. To be noted: cited from earlier work.
The subject of the next experiment is IDI-1. To be noted: positively charged ammonium group at physiological pH; cited from earlier work.

Values joined by “and” are separate entries in the source; they are usually repeats but may differ in a detail not shown here. Identical values can stand only once.

T1 sequence (Q46822 whole entry): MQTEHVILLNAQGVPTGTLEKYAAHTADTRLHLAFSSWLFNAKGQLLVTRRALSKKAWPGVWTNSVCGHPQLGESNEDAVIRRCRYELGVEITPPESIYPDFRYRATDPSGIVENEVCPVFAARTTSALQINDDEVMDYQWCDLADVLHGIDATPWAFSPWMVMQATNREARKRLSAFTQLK

As usually defined, the IC50 is the midpoint of a concentration-inhibition curve. A high value points to lower potency. As usually defined, the Ki is the equilibrium dissociation constant of an inhibitor or competing ligand from its target. Higher therefore signals weaker binding. Regarding `C=C=CCOP(=O)(O)OP(=O)(O)O` [2-OPP, 2,3-Butadien-1-yl diphosphate], at Escherichia coli IDI-1 [1], the concentration for half-maximal inhibition (IC50) was about 200 µM and the Type of inhibition result was “competitive inhibitors”. Besides, the Ki on Escherichia coli IDI-1 [1] (KI, IDI-1, acid lability assay, competitive inhibition) is 49 µM and 31 µM. For the same molecule, in experiment [2], the IC50 is about 50 µM and the Type of inhibition result is on record as “competitive inhibitors”. In addition, in experiment [3], the “Isomerization (turnover as substrate) by NMR” value was “no evidence was seen for isomerization” and the “Reactivity relative to the natural substrates (times less reactive)” value is recorded as “at least 1000 times”.
By Km is commonly meant the concentration of substrate that gives half-maximal velocity. For the molecule `C=C(C)CCOP(=O)(O)OP(=O)(O)O` [IPP, isopentenyl diphosphate], the Km on Escherichia coli IDI-1 [4] was 7.9 µM; in experiment [5], 5.6 µM.
In the case of `C#CCCOP(=O)(O)OP(=O)(O)O` [1-OPP, 3-Butyn-1-yl diphosphate], on Escherichia coli IDI-1 [1], the IC50 was about 200 µM and the Type of inhibition result is listed as “competitive inhibitors”. Also, in experiment [2], the IC50 was about 50 µM and the Type of inhibition entry was “competitive inhibitors”. For the same molecule, in experiment [3], the “Isomerization (turnover as substrate) by NMR” value is recorded as “no evidence was seen for isomerization” and the “Reactivity relative to the natural substrates (times less reactive)” value is “at least 1000 times”.
For `CC(C)=CCOP(=O)(O)OP(=O)(O)O` [DMAPP, dimethylallyl diphosphate], at Escherichia coli IDI-1 [4], the Km is 14 µM.
For the molecule `CN(C)CCOP(=O)(O)OP(=O)(O)O` [N,N-Dimethyl-2-amino-1-ethyl diphosphate], in the experiment on IDI-1, the “Affinity for IDI-1” value was “sub-nanomolar affinity”.

Source of the values: paper PMC2912430 (Biochemistry, 2010).
